“And” between values parts separate entries of the source, which are not always exact repeats. Identical values can stand only once. “Also recorded” adds a separate entry of the source. Marks after values point to notes of the source that are not given here. Where no end group is shown, it is not given here.
Legend:
[1] = test system: suppressive activity of CD4+CD25+ regulatory T cells (Treg) on Teff proliferation; experiment: Inhibition assay (co-culturing of Teff with Treg), [3H]-thymidine incorporation; type: cell-based, mouse; conditions: for Effect on ability of Treg to suppress Teff proliferation: Treg preincubated with different concentrations; for Suppressive activity of Treg on Teff, kinase inhibitor treatment: activated Treg incubated with inhibitor
Method: (xvi) Activation of CD4^+CD25^+ regulatory T cells. Purified regulatory T cells (Treg; 0.5×10^6 cells/mL) were activated in RPMI medium supplemented with L-glutamine (2 mM), 2-mercaptoethanol (5×10^−5 M), sodium pyruvate (1 mM), penicillin (100 IU/mL), streptomycin (100 μg/mL), nonessential amino acids (1 mL/100 mL), and autologous serum 2% (vol/vol) in the presence of mrIL-2 (5 ng/mL) and soluble anti-CD3 antibodies (1 ng/mL). Irradiated (2500 rad) splenocytes (1.5×10^6 cells/mL) were added to the culture. Cells were activated for 24 or 96 h. In some of the 96-h experiments, fresh dopamine was added to the culture every 24 h during activation.
(xvii) Inhibition assay (co-culturing of Teff with Treg). Naïve effector T cells (Teff; 50×10^3 cells/well) were co-cultured with decreasing numbers of activated Treg for 72 h in 96-well flat-bottomed plates in the presence of irradiated splenocytes (10^6/mL) supplemented with anti-CD3 antibodies. [^3H]-thymidine (1 μCi) was added for the last 16 h of culture. After the cells were harvested, their [^3H]-thymidine content was analyzed by the use of […].
In this experiment, we examined whether dopamine acts on Treg and alters their suppressive effect on Teff. Suppression of proliferation of Teff, assayed by [^3H]thymidine incorporation, was used as a measure of suppressive effect of Treg (Thornton and Shevach, 1998).
Shevach, 1998, 2000). Inhibition of Treg proliferation, assayed by [^3H]thymidine incorporation, can therefore be taken as a measure of the suppressive effect. We examined the ability of major neurotransmitters and neuropeptides (dopamine, norepinephrine, substance P, and serotonin) to alleviate the Treg-induced suppression of Teff in vitro. Each compound was tested at several concentrations. […] After incubating the activated Treg for 2 h with a neurotransmitter or a neuropeptide, we washed the cells and then co-cultured them with Teff.

[2] = test system: mice, glutamate-induced retinal ganglion cell death; experiment: Intravitreal glutamate toxicity, retinal ganglion cell survival; type: in vivo, mouse; conditions: for Changes in neuronal survival in treated relative to untreated mice (mean±SEM): systemic injection immediately after glutamate intoxication
Method: (iii) Intravitreal glutamate injection. The right eyes of anesthetized mice were punctured with a 27-gauge needle in the upper part of the sclera, and a 10-μL Hamilton syringe with a 30-gauge needle was inserted as far as the vitreal body. A total volume of 1 μl, of L-glutamate (400 nmol) dissolved in saline was injected into the eye.
(iv) Retrograde labeling of retinal ganglion cells. Mice were anesthetized and placed in a stereotactic device. The skull was exposed and kept dry and clean. The bregma was identified and marked. The designated point of injection was at a depth of 2 mm from the brain surface, 2.92 mm behind the bregma in the anteroposterior axis and 0.5 mm lateral to the midline. A window was drilled in the scalp above the designated coordinates in the right and left hemispheres. The neurotracer dye FluoroGold (5% solution in saline; Fluorochrome, Denver, Colo.) was applied (1 μL, at a rate of 0.5 μL/min in each hemisphere) using a Hamilton syringe, and the skin over the wound was sutured.
(xxi) Assessment of mouse retinal ganglion cell survival. Mice were given a lethal dose of pentobarbitone (170 mg/kg). Their eyes were enucleated and the retinas were detached and prepared as flattened whole mounts in 4% paraformaldehyde solution. Labeled cells from 4-6 selected fields of identical size (0.7 mm^2) were counted. The selected fields were located at approximately the same distance from the optic disk (0.3 mm) to overcome the variation in RGC density as a function of distance from the optic disk. Fields were counted under the fluorescence microscope (magnification ×800) by observers blinded to the identity of the retinas. The average number of RGCs per field in each retina was calculated.
Injection of glutamate into the eyes of adult mice causes retinal ganglion cell death that is measurable 1 week after the injection (Mizrahi et al., 2002; Schori et al., 2001a; Katayama et al., 1990). We injected Balb/c mice intraperitoneally (i.p.) with the dopamine, or its specific D1-type agonist SKF-38393 (3.3 mg/kg), or its specific D1-type antagonist SCH-23390 (3 mg/kg), immediately after their exposure to glutamate toxicity. We also injected SCID Balb/c mice with SKF-38393 (3.3 mg/kg) immediately after glutamate intoxication.
Immediately after glutamate intoxication mice were systemically injected with the indicated drugs. Neuronal survival was determined ten days later (see Materials and Methods). The results are expressed by changes (in percentage) in neuronal survival in treated mice relative to untreated mice. Each value represents a mean±SEM of a group of at least 5 animals, and each experiment was performed at least twice, independently. Asterisks (***, P<0.001; **, P<0.01) indicate statistical significance of the presented data from a single experiment using a Student's T-test statistical analysis. (NT—not tested; ns—no statistical significance).

Treg = Treg apoptosis (propidium iodide sub-G1, annexin V, FACS); type: cell-based, mouse; conditions: Treg incubated with compound
Method: (viii) FACS analysis of annexin V-positive regulatory T cells. PE-stained CD25^+ cells were stained for annexin V-FITC according to the manufacturer's instructions. The cells were scored as described above, and CD25^+ lymphocytes were then gated for analysis of annexin V-positive cells.
(xv) Propidium iodide staining. Cells were fixed in cold ethanol 80% and treated with RNAse. Propidium iodide was then applied, and cell samples were assessed by FACSort.

[3] = test system: phospho-ERK1/2 in Treg and Teff; experiment: ERK1/2 phosphorylation (intracellular FACS staining, Western blot); type: cell-based, mouse; conditions: activation with anti-CD3 and anti-CD28 for 20 min
Method: (ix) FACS analysis of intracellular labeling of phosphorylated form of ERK. T-cell subpopulations were fixed in 1.5% formaldehyde for 10 min at room temperature, washed, resuspended with vortexing in cold 100% methanol, and incubated for 1 h at 4° C. The cells were then washed with PBS containing 1% bovine serum albumin (BSA) and resuspended in 100 μL of PBS/BSA, and 12.5 μL of anti-phosphoERK1 & 2 (BioSource) was added for 20 min at room temperature. The cells were then washed, resuspended in PBS, and analyzed by FACSCalibur (Becton-Dickinson). As a negative control we incubated the phospho-peptide for 20 min with its antibody and then added the mixture to T cells.
(xix) Western blotting. Cells were stimulated for 20 min with anti-CD3 and anti-CD28 antibodies in the presence or absence of dopamine or SKF-38393. Cell lysates were prepared using RIPA lysis buffer (50 mM Tris, pH 8; 0.1% SDS; 0.5% deoxycholate; 1% NP40; 500 mM NaCl; 10 mM MgCl2) and were then kept on ice for 10 min before being vortexed and centrifuged. Supernatants were collected and 5× sample buffer (containing 25 mM Tris pH 6.8, 2% sodium dodecyl sulfate (SDS), 10% glycerol, 0.1% bromophenol blue, 0.5 M β-mercaptoethanol) was added prior to boiling. Cell extracts were separated by SDS-PAGE (10% polyacrylamide), and blotted onto nitrocellulose. Activated ERK1/2 was detected by probing blots with a 1:30,000 dilution of monoclonal antibody. Total ERK protein was detected by using a 1:10,000 dilution of a polyclonal rabbit antibody. The blots were developed by horseradish peroxidase-conjugated anti-mouse or anti-rabbit Fab and ECL (Amersham). Signals were quantified using NIH Image 1.62.
Treg were activated for 20 min in the presence or absence of dopamine (10^−5 M), and were then subjected to intracellular phosphoprotein staining (Perez and Nolan 2002) and analyzed by flow cytometry. […] As a measure of the background nonspecific staining of the phosphorylated ERK we used a specific peptide of phospho-ERK, which competes for binding of the antibody. The intracellular staining procedure for phospho-ERK detection by FACS was validated by the use of Teff incubated with 20 μM phorbol 12-myristate 13-acetate (PMA), known to stimulate the activity of protein kinase C (PKC) (data not shown).

[4] = test system: adhesion of Treg and Teff to chondroitin sulfate proteoglycans (CSPG); experiment: T cell adhesion to CSPG; type: cell-based, mouse
Method: (xiii) T cell adhesion. Adhesion of activated CD4^+CD25^+ and CD4^+CD25^− T cells to CSPG was analyzed as previously described (23). Briefly, flat-bottomed microtiter (96-well) plates were pre-coated with CSPG (1 μg/well, 40 min, 37° C.). ^51Cr-labeled T cells were left untreated or were pre-incubated (30 min, 37° C.) with dopamine or the specified agonist or antagonist (10^−5M). The cells (10^5 cells in 100 μL of RPMI containing 0.1% BSA) were then added to the CSPG-coated wells, incubated (30 min, 37° C.), and washed. Adherent cells were lysed and the resulting supernatants were removed and counted in a γ-counter. Results were expressed as the mean percentage of the total population before adhesion of bound T cells from quadruplicate wells for each experimental group.
One of the main features of T cells is their ability to migrate to tissues in need of rescue or repair [such as diseased or damaged CNS (Hickey, 1999; Flugel et al., 2001). […] We therefore incubated Treg with dopamine for 2 h and then examined their adhesion to chondroitin sulfate proteoglycans (CSPG), extracellular matrix proteins often associated with injured tissues (Jones et al., 2003).
To verify that the effect of dopamine on adhesion of Treg is exerted through the ERK1/2 pathway, we incubated Treg with the ERK1/2 signaling pathway inhibitor PD98059 before carrying out the adhesion assay. […] Since interaction of T cells with CSPG is mediated in part by the CD44 receptor (Henke et al., 1996), and in light of the known dependence of CD44 expression on the ERK signaling pathway, it was conceivable that dopamine might affect the expression of CD44 in Treg.

[5] = test system: mouse solid melanoma tumor cells M2R; experiment: M2R melanoma tumor development in mice; type: in vivo
Method: To verify the effect of dopamine and its related compounds on tumor growth, C57BL mice were injected with the specific D1-R agonist SKF-38393 (3.3 mg/kg) immediately after inoculation of mouse solid melanoma tumor cells M2R. The experimental group (n=10) received a single injection of SKF-38393, and a control group (n=11) was injected with PBS.
To further isolate the effect of dopamine on the immune system, C57BL mice (n=10) and SCID mice (n=8) were injected with SKF-38393 (3.3 mg/kg) immediately after injecting them with solid tumor cells M2R (FIG. 9c).

[6] = test system: mice, glutamate-induced retinal ganglion cell death; experiment: Intravitreal glutamate toxicity, retinal ganglion cell survival; type: in vivo, mouse; conditions: retinas excised 7 days afterwards

Compound: substance P: a pain- and stress-related neurotransmitter (neuropeptide) (RPKPQQFFGLM-NH2; UniProt P20366 58-68, looked up)
- Effect on ability of Treg to suppress Teff proliferation [1]: no effect

Compound: NC[C@H](O)c1ccc(O)c(O)c1 [norepinephrine]
- Effect on suppressive activity of Treg ([1]; 10^−5 or 10^−7 M for 2 h after 24 h activation): did not affect the suppressive activity of Treg
- Effect on ability of Treg to suppress Teff proliferation [1]: no effect

Compound: NCCc1c[nH]c2ccc(O)cc12 [serotonin]
- Effect on ability of Treg to suppress Teff proliferation [1]: no effect

Compound: CN1CCc2cc(Cl)c(O)cc2[C@@H](c2ccccc2)C1 [SCH-23390]
- Decrease in neuronal survival relative to PBS-injected mice ([2]; Balb/c, SCH-23390 3 mg/kg i.p., 3 mg/kg): 11±1.5% and 11%
- Changes in neuronal survival in treated relative to untreated mice (mean±SEM) ([2]; Wild type mice): −11 ± 1.5** percentage

Compound: Oc1cc2c(cc1O)C(c1ccccc1)CNCC2 (racemic) [SKF-38393, (+/−)-1-Phenyl-2,3,4,5-tetrahydro-(1H)-3-benzazepine-7,8-diol.HC1]
- Effect on suppressive activity of Treg, compound alone ([1]; 10^−5 M): reproduced the dopamine effect
- Apoptosis, annexin V staining for phosphatidylserine (Treg): No increase in annexin V-labeled cells
- Phospho-ERK1/2 in activated Treg, Western blot [3]: reduced
- Adhesion of Treg to CSPG ([4]; dopamine 10^−9-10^−5 M, concentration-dependent, agonist 10^−5 M): mimicked
- Increase in neuronal survival relative to PBS-treated glutamate-injected controls ([2]; Balb/c, single i.p. injection, dopamine 0.4 mg/kg, SKF-38393 3.3 mg/kg): 19±3.2%
- Effect on neuronal survival in immune-deficient mice ([2]; SCID Balb/c, 3.3 mg/kg): no effect; also recorded: lack of effect
- Changes in neuronal survival in treated relative to untreated mice (mean±SEM) ([2]; SCID mice): 3 ± 1.8 (ns) percentage
- Changes in neuronal survival in treated relative to untreated mice (mean±SEM) ([2]; Wild type mice): 19 ± 3.2** percentage
- Tumor development ([5]; C57BL mice, single injection 3.3 mg/kg immediately after M2R inoculation): significantly attenuated
- Tumor development ([5]; SCID mice, 3.3 mg/kg immediately after M2R inoculation): No effect
- Neuronal survival compared to vehicle-injected mice ([6]; 0.33 mg/kg i.v.): neuroprotective trend, however not significant
- Neuronal survival compared to vehicle-injected mice ([6]; 3.3 mg/kg i.v.): significant increase in neuronal survival

Compound: O=c1c(-c2ccc(O)cc2)coc2cc(O)cc(O)c12 [genistein, 4′,5,7-trihydroxy isoflavone]
- Suppressive activity of Treg on Teff, kinase inhibitor treatment [1]: blocked the suppressive activity
- Proliferation of Treg themselves ([1]; in the presence of genistein): underwent proliferation themselves
- Proliferation of Teff ([1]; same concentration as used on Treg): had no effect

Compound: COc1cccc(-c2cc(=O)c3ccccc3o2)c1N [PD98059]
- Suppressive activity of Treg on Teff, kinase inhibitor treatment [1]: significantly reduced the suppressive activity; also recorded: almost completely abolished their suppression
- Adhesion of Treg to CSPG after ERK1/2 pathway inhibitor ([4]; Treg incubated with PD98059 before assay): significantly reduced

— US20100168085A1, “Dopamine and agonists and antagonists thereof for modulation of suppressive activity of CD4+CD25+ regulatory T cells” (YESA RESEARCH AND DEVELOPMENT CO. LTD. at the Weizmann …, priority 2003, published 2010)
